Measurements as given in ChEMBL document CHEMBL4177563, “The medicinal chemistry of Chikungunya virus” (Bioorg Med Chem, 2017).
Values after ≈ are worked out from the molar mass of the structure shown.

Columns and labels:
[1] = test system: Chikungunya virus; assay: Antiviral activity against Chikungunya virus LR2006 OPY1 infected in human MRC5 cells after 48 hrs by indirect immunofluorescence analysis; format: functional, organism-based; conditions: LR2006 OPY1, MRC5, 48 h
[2] = Cytotoxicity against African green monkey Vero cells assessed as reduction in cell viability after 18 hrs by neutral red staining-based microscopic analysis; conditions: chlorocebus sabaeus
[3] = test system: Chikungunya virus; assay: Antiviral activity against Chikungunya virus LR2006 OPY1 infected in human MRC5 cells after 60 mins by indirect immunofluorescence analysis; format: functional, organism-based; conditions: LR2006 OPY1, MRC5, 1 h
[4] = Selectivity index, ratio of CC50 for African green monkey Vero cells to IC50 for Chikungunya virus LR2006 OPY1; format: toxicity; conditions: read-out: Ratio CC50/IC50
[5] = Selectivity index, ratio of CC50 for human MRC5 cells to IC50 for Chikungunya virus LR2006 OPY1; format: toxicity; conditions: read-out: Ratio CC50/IC50
[6] = Cytotoxicity against human MRC5 cells assessed as reduction in cell viability after 48 hrs by neutral red staining-based microscopic analysis
[7] = test system: Chikungunya virus; assay: Antiviral activity against Chikungunya virus LR2006 OPY1 infected in human MRC5 cells after 30 mins by indirect immunofluorescence analysis; format: functional, organism-based; conditions: LR2006 OPY1, MRC5, 0.5 h
[8] = test system: Aedes aegypti; assay: Larvicidal activity against Aedes aegypti Paea assessed as mortality after 24 hrs; format: functional, organism-based
[9] = test system: Aedes aegypti; assay: Induction of oviposition deterrent activity in Aedes aegypti assessed as effective repellency at 40 ug/ml after 24 hrs by stereomicroscopic analysis relative to control; format: functional
[10] = test system: Aedes aegypti; assay: Larvicidal activity against Aedes aegypti Paea assessed as mortality at 20 ug/ml after 24 hrs relative to control; format: functional
[11] = test system: Aedes aegypti; assay: Larvicidal activity against Aedes aegypti Paea assessed as mortality at 10 ug/ml after 24 hrs relative to control; format: functional
[12] = test system: Aedes aegypti; assay: Larvicidal activity against Aedes aegypti Paea assessed as mortality at 15 ug/ml after 24 hrs relative to control; format: functional
[13] = test system: Aedes aegypti; assay: Induction of oviposition deterrent activity in Aedes aegypti assessed as effective repellency at 20 ug/ml after 24 hrs by stereomicroscopic analysis relative to control; format: functional
[14] = test system: Aedes aegypti; assay: Induction of oviposition deterrent activity in Aedes aegypti assessed as effective repellency at 10 ug/ml after 24 hrs by stereomicroscopic analysis relative to control; format: functional
[15] = test system: Aedes aegypti; assay: Larvicidal activity against Aedes aegypti Paea assessed as mortality at 25 ug/ml after 24 hrs relative to control; format: functional
[16] = test system: Aedes aegypti; assay: Induction of oviposition deterrent activity in Aedes aegypti assessed as effective repellency at 30 ug/ml after 24 hrs by stereomicroscopic analysis relative to control; format: functional
[17] = test system: Aedes aegypti; assay: Induction of oviposition deterrent activity in Aedes aegypti assessed as effective repellency at 50 ug/ml after 24 hrs by stereomicroscopic analysis relative to control; format: functional
[18] = test system: Aedes aegypti; assay: Larvicidal activity against Aedes aegypti Paea assessed as mortality at 5 ug/ml after 24 hrs relative to control; format: functional
[19] = test system: Chikungunya virus; assay: Antiviral activity against Chikungunya virus infected in HEK293T cells assessed as reduction in infectious virus particle production by luciferase reporter gene assay; format: functional, organism-based; conditions: HEK-293T
[20] = test system: Chikungunya virus; assay: Antiviral activity against Chikungunya virus SGP011 infected in African green monkey BGM cells assessed as reduction in viral infectious progeny after 48 hrs by titration assay; format: functional, organism-based
[21] = test system: Chikungunya virus; assay: Antiviral activity against Chikungunya virus CNR20235 infected in buffalo green monkey BGM cells after 24 hrs by luciferase reporter gene assay; format: functional, organism-based
[22] = test system: Chikungunya virus; assay: Antiviral activity against Chikungunya virus SGP011 infected in African green monkey BGM cells after 24 hrs by luciferase reporter gene assay; format: functional, organism-based
[23] = test system: Chikungunya virus; assay: Antiviral activity against Chikungunya virus 899 assessed as inhibition of virus-induced cytopathogenic effect measured on day 5 post infection by MTS/PMS based microscopic analysis; format: functional, organism-based; conditions: Chikungunya virus, 899, 120 h
[24] = test system: Chikungunya virus; assay: Antiviral activity against Chikungunya virus 899 infected in African green monkey BGM cells assessed as reduction in viral infectious progeny after 48 hrs by titration assay; format: functional, organism-based; conditions: Chikungunya virus, 899, BGM
[25] = test system: Chikungunya virus; assay: Antiviral activity against Chikungunya virus 899 by qRT-PCR analysis; format: functional, organism-based
[26] = test system: Chikungunya virus; assay: Antiviral activity against Chikungunya virus SGP011 by qRT-PCR analysis; format: functional, organism-based
[27] = test system: Chikungunya virus; assay: Antiviral activity against Chikungunya virus LR2006 OPY1 infected in African green monkey BGM cells after 24 hrs by luciferase reporter gene assay; format: functional, organism-based
[28] = test system: Chikungunya virus; assay: Antiviral activity against Chikungunya virus infected in African green monkey Vero cells; format: functional, organism-based
[29] = Cytotoxicity against African green monkey Vero cells assessed as reduction in cell viability; format: cell-based; conditions: chlorocebus sabaeus
[30] = test system: Chikungunya virus; assay: Antiviral activity against Chikungunya virus S-27 assessed as viral titer interferon loading; format: functional

Q: Which results are given for `CCOC(=O)c1c(CSc2ccccc2)n(C)c2cc(Br)c(O)c(CN(C)C)c12` [UMIFENOVIR]?
A: IC50 [1]: 12.2 µM; CC50 at 18 h [2]: 680 µM; IC50 [3]: 31.7 µM; selectivity ratio [4]: 28; selectivity ratio [5]: 36; CC50 at 48 h [6]: 376 µM; IC50 [7]: 23.1 µM

Q: For `CC(C)=CCCC(C)c1ccc(C)cc1` (stereo unspecified), which IC50 [8] is on record?
A: Its IC50 is 11.2 µg/mL (≈ 55.5 µM).

Q: What about the IC90 [8] of the same molecule?
A: The IC90 was 22 µg/mL (≈ 109 µM).

Q: And the Activity [9]?
A: Its Activity is 86%.

Q: And the Activity [10]?
A: Its Activity is 84.2%.

Q: What about the Activity [11] of the same molecule?
A: The Activity was 45.3%.

Q: What about the Activity [12] of the same molecule?
A: Its Activity is 62.7%.

Q: What about the Activity [13] of the same molecule?
A: The Activity was 75.62%.

Q: What about the Activity [14] of the same molecule?
A: Its Activity is 70.28%.

Q: What about the Activity [15] of the same molecule?
A: The Activity was 97.1%.

Q: And the Activity [16]?
A: Its Activity is 80.87%.

Q: And the Activity [17]?
A: The Activity was 89.99%.

Q: What about the Activity [18] of the same molecule?
A: Its Activity is 24.5%.

Q: Which EC50 [19] does the source give for `O=C(O[C@@H]1Cc2c(O)cc(O)cc2O[C@@H]1c1cc(O)c(O)c(O)c1)c1cc(O)c(O)c(O)c1` [EPIGALOCATECHIN GALLATE] here?
A: Its EC50 is 6.54 µg/mL (≈ 14.3 µM).

Q: For `CC(=O)O[C@@]12C[C@@H](C)[C@@]3(O)[C@@H](C=C(CO)C[C@]4(O)C(=O)C(C)=C[C@@H]34)[C@@H]1C2(C)C` [PROSTRATIN], which EC50 [20] is on record?
A: The EC50 was 0.4 µM.

Q: What about the EC50 [21] of the same molecule?
A: Its EC50 is 0.5 µM.

Q: And the EC50 [22]?
A: Its EC50 is 0.2 µM.

Q: What about the EC50 [23] of the same molecule?
A: The EC50 was 8 µM.

Q: What about the EC50 [24] of the same molecule?
A: The EC50 was 7.1 µM.

Q: And the EC50 [25]?
A: The EC50 was 7.6 µM.

Q: What about the EC50 [26] of the same molecule?
A: The EC50 was 0.3 µM.

Q: And the EC50 [27]?
A: Its EC50 is 0.2 µM.

Q: What does the source list for `CC/C(C)=C/C(=O)O[C@@H]1[C@H](C)C[C@H]2O[C@]1(O)[C@@H](O)[C@H]1CC[C@H](O1)C(C)(C)/C=C/[C@H](C)C2=O`?
A: EC50 [28]: < 0.8 µg/mL; CC50 [29]: 60.9 µg/mL (≈ 135 µM)

Q: Which Activity [30] does the source give for `Sc1ncnc2nc[nH]c12` [MERCAPTOPURINE ANHYDROUS] here?
A: The Activity was 47 - 67 U/ml.
